# What was measured:
# lambsquarters = experiment: Test Example 5: herbicidal effect by foliage application, plastic box (Table 20, symbol O); type: in vivo, lambsquarters (Chenopodium album); conditions: foliage application, three weeks after application
# Text: (§1) [Test Example 5] Herbicidal Effect Test by Foliage Application
# (§2) Sterilized diluvial soil was placed in a plastic box having a length of 21 cm, a width of 13 cm, and a depth of 7 cm. The seeds of each of southern crabgrass, green foxtail, barnyard grass, wild oat, blackgrass, Italian ryegrass, windgrass, velvetleaf, redroot pigweed, lambsquarters, chickweed, false cleavers, persian speedwell, corn, soybean, rice, wheat, beet, and rapeseed were sowed in a spot-like manner and covered with the soil having a thickness of about 1.5 cm. Thereafter, the plants were grown in a greenhouse at 25° C. to 30° C. After 14-day growth of the plants, the emulsion agent of the compound of the present invention prepared according to Formulation Example 2 was diluted with water so as to achieve a predetermined herbicide amount, and the diluted emulsion agent was uniformly applied to a foliage part with a small-sized spray. Three weeks after the herbicide application, the effect of the herbicide on each plant was evaluated according to the criteria of Test Example 1.
# Italian ryegrass = experiment: Test Example 5: herbicidal effect by foliage application, plastic box (Table 20, symbol K); type: in vivo, Italian ryegrass (Lolium multiflorum); conditions: foliage application, three weeks after application
# Text: as §1, §2
# wild oat = experiment: Test Example 5: herbicidal effect by foliage application, plastic box (Table 20, symbol I); type: in vivo, wild oat (Avena fatua); conditions: foliage application, three weeks after application
# Text: as §1, §2
# green foxtail = experiment: Test Example 5: herbicidal effect by foliage application, plastic box (Table 20, symbol G); type: in vivo, green foxtail (Setaria viridis); conditions: foliage application, three weeks after application
# Text: as §1, §2
# barnyard grass [1] = experiment: Test Example 3: herbicidal effect by foliage application, Wagner pot (Table 18, symbol H); type: in vivo, barnyard grass (Echinochloa crus-galli)
# Procedure: (§3) [Test Example 3] Herbicidal Effect Test by Foliage Application After alluvial soil was placed into 1/10000 are of Wagner pot, water was poured and mixed to form a submerged condition having a water depth of 0.1 cm to 0.5 cm. Seeds of barnyard grass, Chinese sprangletop, rice flat sedge, and rice were sowed and the pot was placed in a greenhouse at 25° C. to 30° C. for growth of the plants. After 14-day growth of the plants, the emulsion agent of the compound of the present invention prepared according to Formulation Example 2 was diluted with water so as to achieve a predetermined herbicide amount, and the diluted emulsion agent was uniformly applied to a foliage part with a small-sized spray. Three weeks after the herbicide application, the effect of the herbicide on each plant was evaluated according to the criteria of Test Example 1.
# barnyard grass [2] = experiment: Test Example 5: herbicidal effect by foliage application, plastic box (Table 20, symbol H); type: in vivo, barnyard grass (Echinochloa crus-galli); conditions: foliage application, three weeks after application
# Text: as §1, §2
# velvetleaf = experiment: Test Example 5: herbicidal effect by foliage application, plastic box (Table 20, symbol M); type: in vivo, velvetleaf (Abutilon theophrasti); conditions: foliage application, three weeks after application
# Text: as §1, §2
# blackgrass = experiment: Test Example 5: herbicidal effect by foliage application, plastic box (Table 20, symbol J); type: in vivo, blackgrass (Alopecurus myosuroides); conditions: foliage application, three weeks after application
# Text: as §1, §2
# southern crabgrass = experiment: Test Example 5: herbicidal effect by foliage application, plastic box (Table 20, symbol F); type: in vivo, southern crabgrass (Digitaria ciliaris); conditions: foliage application, three weeks after application
# Text: as §1, §2
# Chinese sprangletop = experiment: Test Example 3: herbicidal effect by foliage application, Wagner pot (Table 18, symbol D); type: in vivo, chinese sprangletop (Leptochloa chinensis)
# Procedure: as §3
# persian speedwell = experiment: Test Example 5: herbicidal effect by foliage application, plastic box (Table 20, symbol R); type: in vivo, Persian speedwell (Veronica persica); conditions: foliage application, three weeks after application
# Text: as §1, §2
# windgrass = experiment: Test Example 5: herbicidal effect by foliage application, plastic box (Table 20, symbol L); type: in vivo, windgrass (Apera spica-venti); conditions: foliage application, three weeks after application
# Text: as §1, §2
# rice flat sedge = experiment: Test Example 3: herbicidal effect by foliage application, Wagner pot (Table 18, symbol E); type: in vivo, rice flat sedge (Cyperus iria)
# Procedure, shortened: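 Plants were sown in alluvial soil held under 0.1–0.5 cm standing water and grown 14 days in a greenhouse at 25–30 °C. An emulsifiable formulation, water-diluted to the set dose, was then sprayed onto the foliage, and effects were scored three weeks later using previously defined criteria.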
Structure (SMILES),herbicidal effect on lambsquarters (O) (lambsquarters; 320 g/ha),herbicidal effect on Italian ryegrass (K) (Italian ryegrass; 320 g/ha),herbicidal effect on wild oat (I) (wild oat; 320 g/ha),herbicidal effect on green foxtail (G) (green foxtail; 320 g/ha),herbicidal effect on barnyard grass (H) (barnyard grass [1]; 320 g/ha),herbicidal effect on barnyard grass (H) (barnyard grass [2]; 320 g/ha),herbicidal effect on velvetleaf (M) (velvetleaf; 320 g/ha),herbicidal effect on blackgrass (J) (blackgrass; 320 g/ha),herbicidal effect on southern crabgrass (F) (southern crabgrass; 320 g/ha),herbicidal effect on Chinese sprangletop (D) (Chinese sprangletop; 320 g/ha),herbicidal effect on persian speedwell (R) (persian speedwell; 320 g/ha),herbicidal effect on windgrass (L) (windgrass; 320 g/ha),herbicidal effect on rice flat sedge (E) (rice flat sedge; 320 g/ha),further results
CCCC(=O)Oc1c(C)nn(C)c(=O)c1-c1c(-c2ccc(OC)c(OC)c2)sc2cc(OC)c(OC)cc12 [5-063],0 (Herbicidal rate of 5% or less (almost no effect)),1 (Herbicidal rate of 5% or more and less than 20%),0 (Herbicidal rate of 5% or less (almost no effect)),0 (Herbicidal rate of 5% or less (almost no effect)),3 (Herbicidal rate of 40% or more and less than 70%),0 (Herbicidal rate of 5% or less (almost no effect)),0 (Herbicidal rate of 5% or less (almost no effect)),0 (Herbicidal rate of 5% or less (almost no effect)),0 (Herbicidal rate of 5% or less (almost no effect)),0 (Herbicidal rate of 5% or less (almost no effect)),0 (Herbicidal rate of 5% or less (almost no effect)),0 (Herbicidal rate of 5% or less (almost no effect)),2 (Herbicidal rate of 20% or more and less than 40%),–
COc1cc2sc(-c3ccc(F)cc3)c(-c3c(O)c(C)nn(C)c3=O)c2cc1-c1ccc(F)cc1 [5-078],–,–,–,–,–,–,–,–,–,–,–,–,–,herbicidal effect on lambsquarters (O) (lambsquarters; 270 g/ha): 1 (Herbicidal rate of 5% or more and less than 20%); herbicidal effect on Italian ryegrass (K) (Italian ryegrass; 270 g/ha): 0 (Herbicidal rate of 5% or less (almost no effect)); herbicidal effect on wild oat (I) (wild oat; 270 g/ha): 0 (Herbicidal rate of 5% or less (almost no effect)); herbicidal effect on green foxtail (G) (green foxtail; 270 g/ha): 5 (Herbicidal rate of 90% or more (almost completely withered)); herbicidal effect on barnyard grass (H) (barnyard grass [1]; 270 g/ha): 4 (Herbicidal rate of 70% or more and less than 90%); herbicidal effect on barnyard grass (H) (barnyard grass [2]; 270 g/ha): 4 (Herbicidal rate of 70% or more and less than 90%); herbicidal effect on velvetleaf (M) (velvetleaf; 270 g/ha): 3 (Herbicidal rate of 40% or more and less than 70%); herbicidal effect on blackgrass (J) (blackgrass; 270 g/ha): 0 (Herbicidal rate of 5% or less (almost no effect)); herbicidal effect on southern crabgrass (F) (southern crabgrass; 270 g/ha): 4 (Herbicidal rate of 70% or more and less than 90%); herbicidal effect on Chinese sprangletop (D) (Chinese sprangletop; 270 g/ha): 4 (Herbicidal rate of 70% or more and less than 90%); herbicidal effect on persian speedwell (R) (persian speedwell; 270 g/ha): 0 (Herbicidal rate of 5% or less (almost no effect)); herbicidal effect on windgrass (L) (windgrass; 270 g/ha): 0 (Herbicidal rate of 5% or less (almost no effect)); herbicidal effect on rice flat sedge (E) (rice flat sedge; 270 g/ha): 3 (Herbicidal rate of 40% or more and less than 70%)
Cc1nn(C)c(=O)c(-c2c(-c3ccc(OC(F)F)cc3)sc3cc(Cl)c(Cl)cc23)c1O [5-086],5 (Herbicidal rate of 90% or more (almost completely withered)),0 (Herbicidal rate of 5% or less (almost no effect)),0 (Herbicidal rate of 5% or less (almost no effect)),0 (Herbicidal rate of 5% or less (almost no effect)),3 (Herbicidal rate of 40% or more and less than 70%),0 (Herbicidal rate of 5% or less (almost no effect)),3 (Herbicidal rate of 40% or more and less than 70%),5 (Herbicidal rate of 90% or more (almost completely withered)),0 (Herbicidal rate of 5% or less (almost no effect)),0 (Herbicidal rate of 5% or less (almost no effect)),5 (Herbicidal rate of 90% or more (almost completely withered)),5 (Herbicidal rate of 90% or more (almost completely withered)),0 (Herbicidal rate of 5% or less (almost no effect)),–
Cc1cc2sc(-c3ccc(C#N)cc3)c(-c3c(O)c(C)nn(C)c3=O)c2cc1C [5-100],0 (Herbicidal rate of 5% or less (almost no effect)),0 (Herbicidal rate of 5% or less (almost no effect)),0 (Herbicidal rate of 5% or less (almost no effect)),0 (Herbicidal rate of 5% or less (almost no effect)),–,0 (Herbicidal rate of 5% or less (almost no effect)),0 (Herbicidal rate of 5% or less (almost no effect)),0 (Herbicidal rate of 5% or less (almost no effect)),0 (Herbicidal rate of 5% or less (almost no effect)),–,2 (Herbicidal rate of 20% or more and less than 40%),0 (Herbicidal rate of 5% or less (almost no effect)),–,–
COc1ccccc1-c1sc2c(C)cc(C)cc2c1-c1c(O)c(C)nn(C)c1=O [6-002],2 (Herbicidal rate of 20% or more and less than 40%),4 (Herbicidal rate of 70% or more and less than 90%),0 (Herbicidal rate of 5% or less (almost no effect)),3 (Herbicidal rate of 40% or more and less than 70%),4 (Herbicidal rate of 70% or more and less than 90%),0 (Herbicidal rate of 5% or less (almost no effect)),1 (Herbicidal rate of 5% or more and less than 20%),4 (Herbicidal rate of 70% or more and less than 90%),0 (Herbicidal rate of 5% or less (almost no effect)),5 (Herbicidal rate of 90% or more (almost completely withered)),4 (Herbicidal rate of 70% or more and less than 90%),1 (Herbicidal rate of 5% or more and less than 20%),3 (Herbicidal rate of 40% or more and less than 70%),–

# — US20230085307A1, “PYRIDAZINONE COMPOUND AND HERBICIDE” (NISSAN CHEMICAL CORPORATION, priority 2019, published 2023)
